Data reported in PubChem BioAssay (NCI).
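Results reflect a 48-hour exposure of cells in 96-well plates to compound at five concentrations. Here, GI50 denotes the concentration required for 50% inhibition of growth. TGI: total growth inhibition.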

Legend:
Assay in all cases: DTP human tumour cell line panel, 48 h
DLD-1 colon = system: DLD-1 colon
DMS 114 small cell lung = system: DMS 114 small cell lung
LXFL 529 NSCLC = system: LXFL 529 NSCLC
M14 melanoma = system: M14 melanoma
SNB-78 CNS = system: SNB-78 CNS
XF 498 CNS = system: XF 498 CNS
HL-60(TB) leukemia = system: HL-60(TB) leukemia
MCF7 breast = system: MCF7 breast
MDA-MB-435 = system: MDA-MB-435
NCI/ADR-RES ovarian = system: NCI/ADR-RES ovarian

CCOc1cc2ccc3c4cc(OC)c(OC)cc4cnc3c2cc1OCC
TGI (DLD-1 colon): > 100 µM | TGI (DMS 114 small cell lung): > 100 µM | TGI (LXFL 529 NSCLC): > 100 µM | TGI (M14 melanoma): > 100 µM | TGI (SNB-78 CNS): > 100 µM | TGI (XF 498 CNS): > 100 µM

COc1ccc(/C=N/N=C(\N)NO)c(Cl)c1O
TGI (DLD-1 colon): > 100 µM | TGI (DMS 114 small cell lung): > 100 µM | TGI (LXFL 529 NSCLC): > 100 µM | TGI (SNB-78 CNS): > 100 µM

COc1c(C)c2c(c3c1c(=O)c1ccccc1n3C)C=CC(C)(C)O2
TGI (DLD-1 colon): > 100 µM | TGI (DMS 114 small cell lung): 43 µM | TGI (HL-60(TB) leukemia): 30.2 µM | TGI (LXFL 529 NSCLC): 94.4 µM | TGI (M14 melanoma): 37.9 µM | TGI (SNB-78 CNS): 72.9 µM | TGI (XF 498 CNS): 55.7 µM

COCc1c(CO)cnc(C)c1OC1OC(CO)C(O)C(O)C1O (stereo not given)
TGI (DLD-1 colon): > 100 µM | TGI (DMS 114 small cell lung): > 100 µM | TGI (LXFL 529 NSCLC): > 100 µM | TGI (M14 melanoma): > 100 µM | TGI (XF 498 CNS): > 100 µM

O=C(NCCO)c1cc2c(cn1)[nH]c1ccccc12
TGI (DLD-1 colon): > 100 µM | TGI (DMS 114 small cell lung): > 100 µM | TGI (HL-60(TB) leukemia): > 100 µM | TGI (LXFL 529 NSCLC): > 100 µM | TGI (M14 melanoma): > 100 µM | TGI (SNB-78 CNS): > 100 µM | TGI (XF 498 CNS): > 100 µM

CC1=C(C(=O)Nc2ccccc2)C(c2ccc([N+](=O)[O-])cc2)C(C(=O)Nc2ccccc2)=C(C)N1
TGI (DLD-1 colon): > 100 µM | TGI (DMS 114 small cell lung): 52.1 µM | TGI (HL-60(TB) leukemia): 34.1 µM | TGI (LXFL 529 NSCLC): 46.5 µM | TGI (M14 melanoma): 41.8 µM | TGI (SNB-78 CNS): > 100 µM | TGI (XF 498 CNS): 49.2 µM

c1ccc(N=c2snc3scc(-c4ccccc4)n23)cc1
TGI (DLD-1 colon): > 100 µM | TGI (DMS 114 small cell lung): 88.8 µM | TGI (HL-60(TB) leukemia): > 100 µM | TGI (LXFL 529 NSCLC): > 100 µM | TGI (M14 melanoma): 96.2 µM | TGI (SNB-78 CNS): > 100 µM | TGI (XF 498 CNS): 66.6 µM

C=CCCCn1ccc2ccccc21
TGI (DLD-1 colon): > 100 µM | TGI (DMS 114 small cell lung): > 100 µM | TGI (HL-60(TB) leukemia): > 100 µM | TGI (LXFL 529 NSCLC): > 100 µM | TGI (M14 melanoma): > 100 µM | TGI (XF 498 CNS): > 100 µM

O=C1OC(c2ccccc2)=N/C1=C\c1ccc2ccccc2c1
TGI (DLD-1 colon): > 100 µM | TGI (DMS 114 small cell lung): > 100 µM | TGI (M14 melanoma): > 100 µM | TGI (SNB-78 CNS): > 100 µM | TGI (XF 498 CNS): > 100 µM

O=C(/C=C/c1ccc(O)c(O)c1)OC1C[C@@](O)(C(=O)O)C[C@@H](O)[C@H]1OC(=O)/C=C/c1ccc(O)c(O)c1 (stereo not given in full)
TGI (DLD-1 colon): > 100 µM | TGI (DMS 114 small cell lung): > 100 µM | TGI (HL-60(TB) leukemia): > 100 µM | TGI (LXFL 529 NSCLC): > 100 µM | TGI (M14 melanoma): > 100 µM | TGI (SNB-78 CNS): > 100 µM | TGI (XF 498 CNS): > 100 µM

N#CC(/C(=N\NC(=O)c1ccncc1)C(=O)Nc1ccc([N+](=O)[O-])cc1[N+](=O)[O-])c1nc(-c2ccc(Br)cc2)cs1 (stereo not given)
TGI (DLD-1 colon): > 100 µM | TGI (DMS 114 small cell lung): > 100 µM | TGI (HL-60(TB) leukemia): > 100 µM | TGI (LXFL 529 NSCLC): > 100 µM | TGI (M14 melanoma): > 100 µM | TGI (SNB-78 CNS): > 100 µM

O=C(O)C1=C(C(=O)Nc2ccccc2)C2C=CC1C2 (stereo not given)
TGI (DLD-1 colon): > 100 µM | TGI (DMS 114 small cell lung): > 100 µM | TGI (HL-60(TB) leukemia): > 100 µM | TGI (LXFL 529 NSCLC): > 100 µM | TGI (M14 melanoma): > 100 µM | TGI (SNB-78 CNS): > 100 µM | TGI (XF 498 CNS): > 100 µM

CN(C)c1ncnc2c1Cc1ccccc1C(=O)N2C
TGI (DLD-1 colon): > 100 µM | TGI (DMS 114 small cell lung): > 100 µM | TGI (HL-60(TB) leukemia): > 100 µM | TGI (LXFL 529 NSCLC): > 100 µM | TGI (M14 melanoma): > 100 µM | TGI (SNB-78 CNS): > 100 µM | TGI (XF 498 CNS): > 100 µM

CC1CN(c2ccc(Cl)cc2)CC(C)(C)OC(=O)O1 (stereo not given)
TGI (DLD-1 colon): > 100 µM | TGI (DMS 114 small cell lung): > 100 µM | TGI (HL-60(TB) leukemia): > 100 µM | TGI (LXFL 529 NSCLC): > 100 µM | TGI (M14 melanoma): > 100 µM | TGI (SNB-78 CNS): > 100 µM | TGI (XF 498 CNS): > 100 µM

Cc1ccc(-n2c3nc(=O)n(C)c(=O)c-3nc3ccccc32)cc1
TGI (DLD-1 colon): > 100 µM | TGI (DMS 114 small cell lung): 27.6 µM | TGI (HL-60(TB) leukemia): 35.8 µM | TGI (LXFL 529 NSCLC): > 100 µM | TGI (M14 melanoma): 32.7 µM | TGI (SNB-78 CNS): > 100 µM | TGI (XF 498 CNS): 55.9 µM

C=CC(=O)N1C/C(=C\c2ccccc2)C(=O)/C(=C/c2ccccc2)C1
TGI (DLD-1 colon): 1.15 µM | TGI (DMS 114 small cell lung): 2.73 µM | GI50 (HL-60(TB) leukemia): 0.805 µM | TGI (HL-60(TB) leukemia): 7.4 µM | TGI (LXFL 529 NSCLC): 2.82 µM | TGI (M14 melanoma): 4.58 µM | GI50 (MCF7 breast): 0.395 µM | TGI (MCF7 breast): 2.06 µM | GI50 (MDA-MB-435): 0.27 µM | TGI (MDA-MB-435): 2.1 µM | TGI (NCI/ADR-RES ovarian): > 27.1 µM | TGI (XF 498 CNS): 3.54 µM

CC(C)C1C(=O)NC(CO)Cc2c[nH]c3c(C(c4c[nH]c5ccccc45)C(O)CO)ccc(c23)N1C (stereo not given)
TGI (DLD-1 colon): > 100 µM | TGI (HL-60(TB) leukemia): > 100 µM | TGI (LXFL 529 NSCLC): > 100 µM | TGI (M14 melanoma): > 100 µM | TGI (SNB-78 CNS): > 100 µM | TGI (XF 498 CNS): > 100 µM

Cc1ccc2[nH]c3c(C)c4c(c(C)c3c2c1)CN(C)C=C4
TGI (DLD-1 colon): 13.1 µM | GI50 (DMS 114 small cell lung): 0.437 µM | TGI (DMS 114 small cell lung): 2.1 µM | TGI (HL-60(TB) leukemia): 23.5 µM | TGI (LXFL 529 NSCLC): 2.35 µM | TGI (M14 melanoma): 13.6 µM | TGI (SNB-78 CNS): 3.41 µM | TGI (XF 498 CNS): 6.06 µM

CC(=O)NC(CCCCN(Cc1ccccc1)C(=O)NCCCl)C(=O)NCc1ccccc1 (stereo not given)
TGI (DLD-1 colon): > 100 µM | TGI (DMS 114 small cell lung): > 100 µM | TGI (HL-60(TB) leukemia): > 100 µM | TGI (LXFL 529 NSCLC): > 100 µM | TGI (M14 melanoma): > 100 µM

O=C1Nc2cc(Cl)ccc2N=CC1NC(=O)C(c1ccccc1)c1ccccc1Cl (stereo not given)
TGI (DLD-1 colon): > 100 µM | TGI (DMS 114 small cell lung): > 100 µM | TGI (HL-60(TB) leukemia): > 100 µM | TGI (LXFL 529 NSCLC): > 100 µM | TGI (M14 melanoma): > 100 µM | TGI (SNB-78 CNS): > 100 µM

CCCCCCCCCCCCCCCCOCC(CN(C)CCN(C)C)OCCCCCCCCCCCCCCCC (stereo not given)
TGI (DLD-1 colon): > 100 µM | TGI (DMS 114 small cell lung): > 100 µM | TGI (HL-60(TB) leukemia): > 100 µM | TGI (LXFL 529 NSCLC): > 100 µM | TGI (M14 melanoma): > 100 µM | TGI (SNB-78 CNS): > 100 µM

C=CCCOC(=O)CO[N+](=O)[O-]
TGI (DLD-1 colon): > 100 µM | TGI (DMS 114 small cell lung): > 100 µM | TGI (HL-60(TB) leukemia): 70.1 µM | TGI (LXFL 529 NSCLC): > 100 µM | TGI (M14 melanoma): > 100 µM | TGI (XF 498 CNS): > 100 µM

COc1cc(OC)c2ssc3c(OC)cc(OC)c4ssc1c2-c43
TGI (DLD-1 colon): > 100 µM | TGI (DMS 114 small cell lung): > 100 µM | TGI (LXFL 529 NSCLC): > 100 µM | TGI (M14 melanoma): > 100 µM | TGI (SNB-78 CNS): > 100 µM | TGI (XF 498 CNS): > 100 µM
